From PMC11204205 (Science Advances, 2024)

Molecular target: PKMζ (protein kinase Mzeta) (Homo sapiens, UniProt Q05513)
Assay: split-Venus BiFC of KIBRA-PKMζ dimerization in HEK293T cells
Format: cell-based

Sequence of PKMζ (protein kinase Mzeta) (Q05513 184-592 limits assumed): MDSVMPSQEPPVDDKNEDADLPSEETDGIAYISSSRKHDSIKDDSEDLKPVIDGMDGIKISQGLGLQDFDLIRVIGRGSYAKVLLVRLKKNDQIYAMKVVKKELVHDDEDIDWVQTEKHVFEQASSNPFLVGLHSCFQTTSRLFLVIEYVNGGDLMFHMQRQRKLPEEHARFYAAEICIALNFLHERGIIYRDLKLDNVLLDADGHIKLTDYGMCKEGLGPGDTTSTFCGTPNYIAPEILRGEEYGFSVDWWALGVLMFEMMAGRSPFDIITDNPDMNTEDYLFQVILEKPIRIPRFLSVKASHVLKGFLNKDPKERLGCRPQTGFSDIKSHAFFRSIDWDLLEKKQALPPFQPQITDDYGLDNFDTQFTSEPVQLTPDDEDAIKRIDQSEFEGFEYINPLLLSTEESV
Sequence of PKMζ (protein kinase Mzeta) (Q8IX03 whole entry partner): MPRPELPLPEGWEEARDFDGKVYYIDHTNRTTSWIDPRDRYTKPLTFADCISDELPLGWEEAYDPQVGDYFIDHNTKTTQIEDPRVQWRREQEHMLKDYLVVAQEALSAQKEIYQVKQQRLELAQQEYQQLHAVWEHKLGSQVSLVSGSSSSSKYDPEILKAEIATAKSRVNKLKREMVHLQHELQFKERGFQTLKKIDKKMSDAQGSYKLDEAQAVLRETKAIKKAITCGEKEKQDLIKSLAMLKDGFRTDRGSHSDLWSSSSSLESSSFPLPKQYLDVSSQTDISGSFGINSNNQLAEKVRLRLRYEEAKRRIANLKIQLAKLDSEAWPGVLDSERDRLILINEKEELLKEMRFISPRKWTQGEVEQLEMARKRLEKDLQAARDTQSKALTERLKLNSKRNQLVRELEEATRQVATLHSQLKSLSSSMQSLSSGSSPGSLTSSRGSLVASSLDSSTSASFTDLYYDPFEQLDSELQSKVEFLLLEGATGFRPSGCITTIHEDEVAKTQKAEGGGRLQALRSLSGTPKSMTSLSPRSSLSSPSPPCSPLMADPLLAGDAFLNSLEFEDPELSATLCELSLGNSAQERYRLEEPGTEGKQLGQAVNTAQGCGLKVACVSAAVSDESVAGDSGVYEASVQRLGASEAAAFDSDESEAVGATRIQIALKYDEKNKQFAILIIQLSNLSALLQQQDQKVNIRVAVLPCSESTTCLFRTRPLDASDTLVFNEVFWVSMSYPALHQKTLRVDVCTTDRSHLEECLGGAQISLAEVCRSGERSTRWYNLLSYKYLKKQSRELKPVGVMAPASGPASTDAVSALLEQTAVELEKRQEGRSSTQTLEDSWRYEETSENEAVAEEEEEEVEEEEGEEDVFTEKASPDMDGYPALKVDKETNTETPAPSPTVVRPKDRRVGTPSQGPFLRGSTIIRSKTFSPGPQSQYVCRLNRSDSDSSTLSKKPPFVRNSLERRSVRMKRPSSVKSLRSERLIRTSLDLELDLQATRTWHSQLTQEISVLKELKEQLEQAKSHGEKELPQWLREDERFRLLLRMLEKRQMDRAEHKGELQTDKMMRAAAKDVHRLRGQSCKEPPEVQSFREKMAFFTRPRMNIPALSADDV

IC50: ~1000 nM
SMILES: O=S(=O)(O)c1cc(O)c2c(S(=O)(=O)O)cc(S(=O)(=O)O)cc2c1 [ζ-stat, 1-naphthol-3,6,8-trisulfonic acid]
